{
  "source": "patent US7943603B2",
  "about": "“Medical uses of a selective estrogen receptor modulator in combination with sex steroid precursors” (Endorecherche, Inc., priority 1998, dated 2011)",
  "key": {"[1]": {"tested_on": "female rat", "assay": "Bone mineral density (DEXA) after 9-month treatment", "type": "in vivo", "conditions": "DHEA 10 mg percutaneously, EM-800 75 μg orally, once daily, alone or in combination, 9 months", "procedure": "Female Sprague-Dawley rats [Crl:CD(SD)Br] were obtained at 44-46 days of age from Charles River Canada Inc. (St. Constant, Quebec) and housed 2 per cage in a light (12 h light/day; lights on at 07:15 h)-and temperature (22±2° C.)-controlled environment. Animals received Purina rodent chow and tap water ad libitum. The animal studies were conducted in a Canadian Council on Animal Care (CCAC)-approved facility in agreement with the CCAC Guide for Care and Use of Experimental Animals.\nThe animals were randomly divided into groups each containing 20 rats with the exception of 40 animals in the control group. […] Treatment was initiated 3 days before the oral administration of DMBA. EM-800 was synthesized in the Medicinal Chemistry Division of our laboratory while DHEA was purchased from Steraloids Inc., Wilton, N.H.\nRats were anesthetized with an i.p. injection of ketamine hydrochloride and diazepam at doses of 50 and 4 mg/kg B.W., respectively. The whole skeleton and the right femur were scanned using dual energy X-ray absorptiometry (DEXA; QDR 2000-7.10C, Hologic, Waltham, Mass.) equipped with a Regional High Resolution software. The scan field sizes were 28.110×17.805 cm and 5.0×1.902 cm, the resolutions were 0.1511×0.0761 cm and 0.0254×0.0127 cm, while the scan speeds were 0.3608 and 0.0956 mm/sec for total skeleton and femur, respectively. Both bone mineral content (BMC) and bone mineral density (BMD) of total skeleton, lumbar spine, and femur were measured on the scan images of total skeleton and femur."}, "[2]": {"tested_on": "ovariectomized (OVX) nude mice supplemented with estrone", "assay": "Uterine, vaginal and body weight in OVX nude mice bearing ZR-75-1 xenografts", "conditions": "OVX+E1 nude mice, 9.5 months", "procedure": "A posteriori pairwise comparisons were performed using Fisher's test for least significant difference. Main effects and the interaction of treatments on body weight and organ weight were analyzed using a standard two-way ANOVA with interactions. All ANOVAs were performed using SAS program (SAS Institute, Cary, N.C., USA). Significance of differences were declared using a 2-tailed test with an overall level of 5%."}},
  "data": [
    {"smiles": "CC1=C(c2ccc(OC(=O)C(C)(C)C)cc2)[C@H](c2ccc(OCCN3CCCCC3)cc2)Oc2cc(OC(=O)C(C)(C)C)ccc21", "note": "[EM-800, (+)-7-pivaloyloxy-3-(4′-pivaloyloxyphenyl)-4-methyl-2-(4″-(2′″-piperidinoethoxy)phenyl)-2H-benzopyran]", "values": [
      {"measurement": "BMD FEMUR", "setting": "[1]", "result": "0.3097 ± 0.0047", "unit": "g/cm2"},
      {"measurement": "BMD LUMBAR SPINE", "setting": "[1]", "result": "0.1888 ± 0.0045", "unit": "g/cm2"},
      {"measurement": "BMD TOTAL SKELETON", "setting": "[1]", "result": "0.1356 ± 0.0017", "unit": "g/cm2"},
      {"measurement": "increase in BMD of femur versus control", "setting": "[1]", "result": "no significant change"},
      {"measurement": "increase in BMD of lumbar spine versus control", "setting": "[1]", "result": "no significant change"},
      {"measurement": "increase in BMD of total skeleton versus control", "setting": "[1]", "result": "no significant change"},
      {"measurement": "vaginal weight", "setting": "[2]; EM-800 15 μg daily", "result": "23 ± 1", "unit": "mg"},
      {"measurement": "uterine weight", "setting": "[2]; EM-800 15 μg orally daily", "result": "49 ± 3", "unit": "mg"},
      {"measurement": "vaginal weight", "setting": "[2]; EM-800 50 μg daily", "result": "15 ± 1", "unit": "mg"},
      {"measurement": "uterine weight", "setting": "[2]; EM-800 50 μg orally daily", "result": "36 ± 2", "unit": "mg"},
      {"measurement": "vaginal weight", "setting": "[2]; EM-800 100 μg daily", "result": "11 ± 1", "unit": "mg"},
      {"measurement": "uterine weight", "setting": "[2]; EM-800 100 μg orally daily", "result": "32 ± 1", "unit": "mg"},
      {"measurement": "effect on body weight adjusted for tumor weight", "setting": "[2]", "result": "No significant effect"}
    ]}
  ]
}
